Experimental data: patent US6855512B2, “Methods for identifying inhibitors of cytochrome P450RAI” (Allergan, Inc., priority 2000, dated 2005)

Assays:
RARα [1] = target: T1, RARα (Homo sapiens, UniProt P10276); assay: chimeric receptor transactivation assay, RARα; format: cell-based; details: EC50 line of EC50/(EFFICACY)/Kd, read-out: RAR α EC50
T1 sequence (P10276 183-417 limits assumed): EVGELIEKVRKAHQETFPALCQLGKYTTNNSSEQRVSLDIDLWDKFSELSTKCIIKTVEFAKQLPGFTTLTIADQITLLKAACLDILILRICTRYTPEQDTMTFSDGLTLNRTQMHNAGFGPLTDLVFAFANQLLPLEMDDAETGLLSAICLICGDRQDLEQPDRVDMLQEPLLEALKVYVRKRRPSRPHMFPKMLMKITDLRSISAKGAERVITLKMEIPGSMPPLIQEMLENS
Description: (§1) Assays described below measure the ability of a compound to bind to, and/or activate various retinoid receptor subtypes. When in these assays a compound binds to a given receptor subtype and activates the transcription of a reporter gene through that subtype, then the compound is considered an agonist of that receptor subtype. […] In the below described assays the ability of the compounds to bind to RARα, RARβ, RARγ, RXRα, RXRβ and RXRγ receptors, and the ability or inability of the compounds to activate transcription of a reporter gene through these receptor subtypes can be tested.
(§2) The results obtained in this assay are expressed in EC50 numbers, as they are also in the chimeric receptor transactivation assay. The results of ligand binding assay are expressed in Kd numbers.

RARγ [2] = target: T2, RARγ (Homo sapiens, UniProt P13631); assay: ligand binding assay, RARγ; details: Kd line of EC50/(EFFICACY)/Kd, K = thousand, read-out: RAR γ Kd
T2 sequence (P13631 1-454): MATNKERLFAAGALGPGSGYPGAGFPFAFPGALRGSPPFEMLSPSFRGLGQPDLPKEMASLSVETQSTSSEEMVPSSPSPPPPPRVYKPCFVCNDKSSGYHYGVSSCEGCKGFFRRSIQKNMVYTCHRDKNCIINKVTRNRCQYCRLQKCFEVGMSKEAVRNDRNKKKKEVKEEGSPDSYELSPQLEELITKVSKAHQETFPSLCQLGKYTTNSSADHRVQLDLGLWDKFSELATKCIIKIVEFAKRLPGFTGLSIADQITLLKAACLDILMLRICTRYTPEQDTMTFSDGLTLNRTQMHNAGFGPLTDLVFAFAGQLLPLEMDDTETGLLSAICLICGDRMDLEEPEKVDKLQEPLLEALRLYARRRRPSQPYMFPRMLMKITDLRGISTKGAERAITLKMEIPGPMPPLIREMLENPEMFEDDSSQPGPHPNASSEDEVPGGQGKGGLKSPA
Description: as §1, §2

RARβ [3] = target: T3, RARβ (Homo sapiens, UniProt P10826); assay: ligand binding assay, RARβ; details: Kd line of EC50/(EFFICACY)/Kd, K = thousand, read-out: RAR β Kd
T3 sequence (P10826 1-455): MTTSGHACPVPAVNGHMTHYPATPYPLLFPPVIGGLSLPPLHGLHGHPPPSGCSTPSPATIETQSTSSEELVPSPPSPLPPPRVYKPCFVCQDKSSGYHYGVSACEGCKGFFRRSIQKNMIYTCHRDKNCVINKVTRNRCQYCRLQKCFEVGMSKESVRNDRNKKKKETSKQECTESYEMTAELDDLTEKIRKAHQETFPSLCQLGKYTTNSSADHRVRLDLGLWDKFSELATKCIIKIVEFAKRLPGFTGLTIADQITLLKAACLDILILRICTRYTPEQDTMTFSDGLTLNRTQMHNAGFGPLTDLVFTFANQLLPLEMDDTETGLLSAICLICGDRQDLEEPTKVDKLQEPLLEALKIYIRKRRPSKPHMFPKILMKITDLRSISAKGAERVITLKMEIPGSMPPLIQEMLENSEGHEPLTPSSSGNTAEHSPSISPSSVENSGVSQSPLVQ
Description: as §1, §2

RARγ [4] = target: T4, RARγ (Homo sapiens, UniProt P13631); assay: chimeric receptor transactivation assay, RARγ; format: cell-based; details: EC50 line of EC50/(EFFICACY)/Kd, read-out: RAR γ EC50
T4 sequence (P13631 185-454 limits assumed): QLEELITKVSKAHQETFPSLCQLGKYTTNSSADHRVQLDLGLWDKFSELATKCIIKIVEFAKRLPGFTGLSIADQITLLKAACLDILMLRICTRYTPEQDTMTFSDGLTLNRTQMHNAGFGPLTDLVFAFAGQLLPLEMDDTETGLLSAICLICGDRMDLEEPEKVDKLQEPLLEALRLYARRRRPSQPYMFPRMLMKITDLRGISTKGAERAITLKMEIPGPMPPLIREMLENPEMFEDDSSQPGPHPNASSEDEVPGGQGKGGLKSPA
Description: as §1, §2

RARβ [5] = target: T5, RARβ (Homo sapiens, UniProt P10826); assay: chimeric receptor transactivation assay, RARβ; format: cell-based; details: EC50 line of EC50/(EFFICACY)/Kd, read-out: RAR β EC50
T5 sequence (P10826 183-417 limits assumed): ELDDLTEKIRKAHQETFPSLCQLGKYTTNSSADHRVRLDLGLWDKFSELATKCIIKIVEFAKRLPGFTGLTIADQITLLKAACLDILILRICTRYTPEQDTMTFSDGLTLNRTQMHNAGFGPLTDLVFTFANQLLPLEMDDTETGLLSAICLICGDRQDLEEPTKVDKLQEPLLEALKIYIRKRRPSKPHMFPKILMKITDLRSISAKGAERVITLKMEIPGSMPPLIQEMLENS
Description: as §1, §2

RARα [6] = target: T6, RARα (Homo sapiens, UniProt P10276); assay: ligand binding assay, RARα; details: Kd line of EC50/(EFFICACY)/Kd, K = thousand, read-out: RAR α Kd
T6 sequence (P10276 1-462): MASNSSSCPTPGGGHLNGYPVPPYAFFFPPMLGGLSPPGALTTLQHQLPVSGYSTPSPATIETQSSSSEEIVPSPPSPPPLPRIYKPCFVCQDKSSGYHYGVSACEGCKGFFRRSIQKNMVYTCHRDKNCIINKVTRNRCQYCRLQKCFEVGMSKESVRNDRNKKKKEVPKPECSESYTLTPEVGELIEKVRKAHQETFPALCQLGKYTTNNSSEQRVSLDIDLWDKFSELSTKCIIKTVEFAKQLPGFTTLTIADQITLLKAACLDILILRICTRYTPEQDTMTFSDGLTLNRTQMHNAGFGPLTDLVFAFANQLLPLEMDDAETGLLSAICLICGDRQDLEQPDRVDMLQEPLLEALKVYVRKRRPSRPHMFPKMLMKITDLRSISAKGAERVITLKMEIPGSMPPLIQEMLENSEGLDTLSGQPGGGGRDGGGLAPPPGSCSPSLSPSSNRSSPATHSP
Description: as §1, §2

Compound `CC1(C)CCSc2ccc(C#Cc3ccc(CCC(=O)O)cc3)cc21` [Compound 210] has an EC50 (RARα [1]) of 89 nM, a Kd (RARγ [2]) of 10000 nM and a Kd (RARβ [3]) of 2890 nM. The EC50 (RARγ [4]) was 15 nM, the EC50 (RARβ [5]) was 18 nM and the Kd (RARα [6]) was 10000 nM.
